# According to patent US20010006667A1, “USE AND COMPOSITION OF AN ANTI-SEXUALLY TRANSMITTED DISEASES FORMULATION” (priority 1994, published 2001):
# Tested on: HIV LAV1 BRU retrovirus clone
# Test: Syncytia formation in HT4LacZ cells infected with an HIV viral suspension pre-mixed with test substance
# Assay type: cell-based
# Method: The formulations were prepared according to the description discussed above, except that the F-Po was prepared with about 2% polycarbophil, no N-9 and about a 1% concentration of Carbomer 934P, rather than 0.5%, and the difference (2%) was made up with additional water.
# A viral blank was used as control, and AZT was used for a positive control. Each formulation was set up as an aqueous suspension of a particular concentration. 500 μl. aliquots of viral suspension were separately mixed with 50 ,μl. of each of the test solutions. After 30 minutes, 55 μl. of each of these mixtures were tested directly on HT4LacZ cells in a well also containing DEAE dextran. During the culturing period, the virus supplies the tat gene missing in HT4LacZ cells, leading to LacZ gene transactivation coding for β-galactosidase, indicated by a histochemical coloration. After 72 hours of culturing, infection is stopped by addition of a fixator for ten minutes. After two PBS washes, the colorant is added for ninety minutes. After syncytia (giant multi-nucleated cells, formed by many cells fusing together when infected with HIV) outbreak, the colorant is replaced with water. Observation is performed with an optical microscope, yielding the following results in Table 1: […]
Compound,Avg. # Syncytia per well (final conc. 10^−5M),Percent Reduction (of syncytia vs viral reference) (final conc. 10^−5M) [%],Total # Syncytia (final conc. 10^−5M),"viral infection remaining, % of that exhibited by the HIV viral suspension (FIG. 1) (0.1 μg/ml) [%]","viral infection remaining, % of that exhibited by the HIV viral suspension (FIG. 1) (1 μg/ml) [%]",Avg. # Syncytia per well (final conc. 0.10 μg/ml),Percent Reduction (of syncytia vs viral reference) (final conc. 0.10 μg/ml) [%],Total # Syncytia (final conc. 0.10 μg/ml),Avg. # Syncytia per well (final conc. 1.0 μg/ml),Percent Reduction (of syncytia vs viral reference) (final conc. 1.0 μg/ml) [%],Total # Syncytia (final conc. 1.0 μg/ml)
Cc1cn([C@H]2C[C@H](N=[N+]=[N-])[C@@H](CO)O2)c(=O)[nH]c1=O [AZT],0,100,0,–,–,–,–,–,–,–,–
nonoxynol-9 [N-9],–,–,–,72,36,11.5,28,46,5.75,64,23
